Consider one molecule from patent publication US20070098802A1, “Organic nanoparticles and associated methods” (priority 2005, published 2007).

Molecules are shown by their SMILES.

The series is described as follows: Nanoparticle size by light scattering and scanning electron microscopy. It counts as physicochemical. The conditions noted are these: 0.5% (w/v), 5 mg/ml glyburide in 70% ethanol and 30% chloroform by weight; water added until clouding. The procedure: A 0.5% (w/v) mixture of 5 mg/ml of glyburide in 70% ethanol and 30% chloroform by weight is prepared. To this mixture, water is added until clouding is observed at which point the emulsion has formed. Light scattering and scanning electron microscopy show the resulting nanoparticle size is on average about 500 nm. A few large nanoparticles may be observed of up to 1 to 3 μm.

Regarding `COc1ccc(Cl)cc1C(=O)NCCc1ccc(S(=O)(=O)NC(=O)NC2CCCCC2)cc1` [glyburide], the “resulting nanoparticle size, on average” value is on record as “about 500 nm”.
